Read-outs that look alike come from different tables or passages of the source.
Legend:
[1] = test system: HIF-1a; experiment: Western blot model: HIF1-a stabilization in Hep3b cells under hypoxia; type: cell-based; settings: hypoxia 1% O2, 6 hours; for Western Blot (range of decrease of HIF1-a stabilization): class symbol
Method: Since it was sought to determine the efficacy of the compounds to inhibit HIF1a stabilization under hypoxia, the compounds according to the invention underwent biochemical studies in order to determine their capacity to decrease HIF stabilization in Hep3b cells under hypoxia (western blot model).
Hep3B cells are seeded at a rate of 300000 cells per well in 6-wells culture plate in 2 ml of MEM supplemented with glutamin (2 mM) and 10% FCS (foetal calf serum) and incubated at 37° C. in the presence of 5% CO2. The next day, the cells are placed in contact with the compound and an incubation under hypoxia at 1% O2 is carried out at 37° C. in 95% humidity and 5% CO2 in a sealed anaerobic workstation (Hypoxystation H35-Don Whitley—AES Chemunex) during 6 hours.
Cells were washed (PBS) and lysed in SDS sample buffer. Proteins (25 μg) were separated on 4-12% Bis-Tris gels and transferred onto polyvinylidene difluoride membranes (Millipore). Membranes were blotted with a mouse monoclonal antibody to HIF-1a (BD transduction) and a mouse monoclonal anti-βactin (Sigma). Immunoreactive bands were detected with a horse radish peroxydase (HRP) anti-mouse antibody (Sigma) by enhanced chemiluminescence (Promega).
The inhibitory activity of the compounds for their capacity to decrease HIF1-a stabilization in Hep3b under hypoxia is expressed as range of percentage relative to control with: […]

[2] = test system: mitochondrial ATP production on non-small cell lung carcinoma cell lines NCI-H460; experiment: Mitochondrial ATP analysis (Cell Titer Glo) in NCI-H460 cells; type: cell-based; settings: 1-hour incubation, with sodium iodoacetate (100 μM), concentration inhibiting 50% of mitochondrial ATP production, read-out: IC50 (mito ATP)
Method: In order to evaluate the inhibitory activity of the all compounds, an in vitro assay was developed which read out is directly linked to mitochondrial complex 1 inhibition. Since mitochondrial complex 1 contributes to the formation of membrane potential coupled to the mitochondrial ATP synthesis, complex 1 inhibition directly leads in cells to the inhibition of mitochondrial ATP production. Cellular ATP contents were measured in presence of either glycolysis inhibitor (sodium iodocetate) and/or mitochondrial inhibitors (F0F1-ATPase inhibitor: oligomycin or mitochondrial uncoupler: FCCP) to determine the ATP production part relying either on glycolytic or on mitochondrial metabolism.
Mitochondrial ATP Analysis
The compounds of the invention were evaluated for their ability to inhibit mitochondrial
ATP was measured using the Promega Cell Titer Glo kit and protocol. In summary, 1,000 cells were plated in 40 μL in a 384 well plate. 24 hours later, medium was replaced by 20 μl culture medium in presence of compounds: cells were treated in replicates of five with control (PBS), oligomycin A (10 μg/ml), FCCP (30 μM), or the compounds of the invention in dose effect both alone or in combination with sodium iodoacetate (100 μM). Following a 1-hour incubation, 20 μL of CellTtiter-glo™ reaction mix were added to each well for a final volume of 40 μL. Plates were then analyzed for luminescence with a Perkin Elmer EnVision. By comparing the different conditions, global ATP and percentages of both glycolytic and mitochondrial ATP were determined.
The mitochondrial ATP production was calculated as the remaining ATP under iodoacetate treatment minus basal ATP (ATP content under iodoacetate and oligomycin treatment). Inhibitory activity of the compounds on mitochondrial ATP in NCI-H460 cells is expressed as the concentration needed to inhibit 50% of mitochondrial ATP production (IC50, M).

Compound	Western Blot (decrease of HIF1-a stabilization, percentage relative to control) [1] [%]	Western Blot (range of decrease of HIF1-a stabilization) [1]	IC50 [2] [nM]	IC50 ([2]; Homo sapiens, NCI-H460, 1 h) [nM]
COc1ccc(C(O)COc2ccc(-c3nc(-c4ccc(OCC(O)c5ccc(OC)c(OC)c5)cc4)c(C)s3)cc2)cc1OC (single isomer, unassigned) [Compound I-10, 1-(3,4-dimethoxyphenyl)-2-[4-[2-[4-[2-(3,4-dimethoxyphenyl)-2-hydroxy-ethoxy]phenyl]-5-methyl-thiazol-4-yl]phenoxy]ethanol]	62	** (** represents a decrease of HIF-a stabilization between 50 to 70%)	146	–
COc1ccc(C(O)C(C)Oc2ccc(-c3coc(-c4ccc(OC(C)C(O)c5ccc(OC)c(OC)c5)cc4)n3)cc2)cc1OC (stereo not drawn) [Compound I-12, 1-(3,4-dimethoxyphenyl)-2-[4-[2-[4-[2-(3,4-dimethoxyphenyl)-2-hydroxy-1-methyl-ethoxy]phenyl]oxazol-4-yl]phenoxy]propan-1-ol]	38	* (* represents a decrease of HIF-a stabilization between 30 to 50%)	–	128
COc1ccc(C(O)COc2ccc(-c3noc(-c4ccc(OCC(O)c5ccc(OC)c(OC)c5)cc4)n3)cc2)cc1OC (single isomer, unassigned) [Compound I-48, 1-(3,4-dimethoxyphenyl)-2-[4-[5-[4-[2-(3,4-dimethoxyphenyl)-2-hydroxy-ethoxy]phenyl]-1,2,4-oxadiazol-3-yl]phenoxy]ethanol]	87	*** (*** represents a decrease of HIF-a stabilization higher than 70%)	> 10000	–
COc1ccc(C(O)COc2ccc(-c3nc(-c4ccc(OCC(O)c5ccc(OC)c(OC)c5)cc4)c(C)s3)cc2)cc1OC (single isomer, unassigned) [Compound I-11, 1-(3,4-dimethoxyphenyl)-2-[4-[2-[4-[2-(3,4-dimethoxyphenyl)-2-hydroxy-ethoxy]phenyl]-5-methyl-thiazol-4-yl]phenoxy]ethanol]	65	** (** represents a decrease of HIF-a stabilization between 50 to 70%)	557	–
COc1cc(C(O)COc2ccc(-c3coc(-c4ccc(OCC(O)c5cc(OC)c(OC)c(OC)c5)cc4)n3)cc2)cc(OC)c1OC (single isomer, unassigned) [Compound I-21, 2-[4-[2-[4-[2-hydroxy-2-(3,4,5-trimethoxyphenyl)ethoxy]phenyl]oxazol-4-yl]phenoxy]-1-(3,4,5-trimethoxyphenyl)ethanol]	52	** (** represents a decrease of HIF-a stabilization between 50 to 70%)	2650	–
COc1ccc(C(O)C(C)(C)Oc2ccc(-c3nc(-c4ccc(OC(C)(C)C(O)c5ccc(OC)c(OC)c5)cc4)c(C)s3)cc2)cc1OC (single isomer, unassigned) [Compound I-8, 1-(3,4-dimethoxyphenyl)-2-[4-[2-[4-[2-(3,4-dimethoxyphenyl)-2-hydroxy-1,1-dimethyl-ethoxy]phenyl]-5-methyl-thiazol-4-yl]phenoxy]-2-methyl-propan-1-ol]	47	* (* represents a decrease of HIF-a stabilization between 30 to 50%)	2.06	–
COc1ccc(C(O)C(C)(C)Oc2ccc(-c3csc(-c4ccc(OC(C)(C)C(O)c5ccc(OC)c(OC)c5)cc4)n3)cc2)cc1OC (stereo not drawn) [Compound I-27, 1-(3,4-dimethoxyphenyl)-2-[4-[2-[4-[2-(3,4-dimethoxyphenyl)-2-hydroxy-1,1-dimethyl-ethoxy]phenyl]thiazol-4-yl]phenoxy]-2-methyl-propan-1-ol]	40	* (* represents a decrease of HIF-a stabilization between 30 to 50%)	3.68	–
COc1ccc(C(O)C(C)(C)Oc2ccc(-c3coc(-c4ccc(OC(C)(C)C(O)c5ccc(OC)c(OC)c5)cc4)n3)cc2)cc1OC (single isomer, unassigned) [Compound I-18, 1-(3,4-dimethoxyphenyl)-2-[4-[2-[4-[2-(3,4-dimethoxyphenyl)-2-hydroxy-1,1-dimethyl-ethoxy]phenyl]oxazol-4-yl]phenoxy]-2-methyl-propan-1-ol]	71	*** (*** represents a decrease of HIF-a stabilization higher than 70%)	62.8	–
COc1ccc(C(O)C(C)(C)Oc2ccc(-c3nc(-c4ccc(OC(C)(C)C(O)c5ccc(OC)c(OC)c5)cc4)c(C)o3)cc2)cc1OC (single isomer, unassigned) [Compound I-3, 1-(3,4-dimethoxyphenyl)-2-[4-[2-[4-[2-(3,4-dimethoxyphenyl)-2-hydroxy-1,1-dimethyl-ethoxy]phenyl]-5-methyl-oxazol-4-yl]phenoxy]-2-methyl-propan-1-ol]	70	*** (*** represents a decrease of HIF-a stabilization higher than 70%)	–	8.85
COc1ccc(C(O)C(C)(C)Oc2ccc(-c3noc(-c4ccc(OC(C)(C)C(O)c5ccc(OC)c(OC)c5)cc4)n3)cc2)cc1OC (stereo not drawn) [Compound I-38, 1-(3,4-dimethoxyphenyl)-2-[4-[5-[4-[2-(3,4-dimethoxyphenyl)-2-hydroxy-11-dimethyl-ethoxy]phenyl]-1,2,4-oxadiazol-3-yl]phenoxy]-2-methyl-propan-1-ol]	79	*** (*** represents a decrease of HIF-a stabilization higher than 70%)	133	–
COc1ccc(C(O)COc2ccc(-c3coc(-c4ccc(OCC(O)c5ccc(OC)c(OC)c5)cc4)n3)cc2)cc1OC (single isomer, unassigned) [Compound I-13, 1-(3,4-dimethoxyphenyl)-2-[4-[2-[4-[2-(3,4-dimethoxyphenyl)-2-hydroxy-ethoxy]phenyl]oxazol-4-yl]phenoxy]ethanol]	51	** (** represents a decrease of HIF-a stabilization between 50 to 70%)	69	–
COc1ccc(C(O)COc2ccc(-c3csc(-c4ccc(OCC(O)c5ccc(OC)c(OC)c5)cc4)n3)cc2)cc1OC (single isomer, unassigned) [Compound I-61, 1-(3,4-dimethoxyphenyl)-2-[4-[2-[4-[2-(3,4-dimethoxyphenyl)-2-hydroxy-ethoxy]phenyl]thiazol-4-yl]phenoxy]ethanol]	46	* (* represents a decrease of HIF-a stabilization between 30 to 50%)	326	–
COc1ccc(C(O)C(C)(C)Oc2ccc(-c3csc(-c4ccc(OC(C)(C)C(O)c5ccc(OC)c(OC)c5)cc4)n3)cc2)cc1OC (stereo not drawn) [Compound I-26, 1-(3,4-dimethoxyphenyl)-2-[4-[2-[4-[2-(3,4-dimethoxyphenyl)-2-hydroxy-1,1-dimethyl-ethoxy]phenyl]thiazol-4-yl]phenoxy]-2-methyl-propan-1-ol]	39	* (* represents a decrease of HIF-a stabilization between 30 to 50%)	–	7.32

— patent US20170313674A1, “BENZYLHYDROXIDE DERIVATIVES, PREPARATION THEREOF AND THERAPEUTIC USE THEREOF” (SANOFI, priority 2014, published 2017)
